Test results: patent US5840918A, “Isoprenyl transferase inhibitors” (Eisai Co., Ltd., priority 1997, dated 1998)

Assays:
[1] = biological target: T1, FTase (Bos taurus, UniProt P29702+P49355); assay: Inhibition of FTase-mediated prenylation (in vitro prenylation assay); type: biochemical; conditions: Table 1; partially purified FTase, 3 μM recombinant H-ras, 440 nM [3H]FPP, 15 min 37° C
T1 construct: bovine brain by inference from the cited Moores et al. 1991
Text: (§1) Nanomolar concentrations of the indicated compounds were sufficient to inhibit farnesylation of ras proteins in vitro. For screening candidate compounds useful for the treatment of ras-associated tumors, the FTase assay is preferred. […] Substitutions which confer GGTase specificity as taught herein also produced potent inhibitors of GGTase.

[2] = biological target: GGTase; assay: Inhibition of GGTase-mediated prenylation (in vitro prenylation assay); type: biochemical; conditions: Table 1; partially purified GGTase, 5 μM recombinant H-ras (61L, CAIL), 1 μM [3H] geranylgeranyl diphosphate
Text: as §1

[3] = system: H-ras farnesylation in H-ras (61L) transformed NIH3T3 fibroblasts; assay: Inhibition of H-ras farnesylation in whole cells (Western blot); type: cell-based, mouse
Protocol: The ability of compounds of the invention to inhibit H-ras farnesylation and rap1 geranylgeranylation in whole cells was determined. H-ras (61L) transformed NIH3T3 fibroblasts were generously provided by C. Der, Univ. N. Carolina. These fibroblasts were treated for 24 h with 50 μM lovastatin (control) or the indicated concentrations of inhibitor. The cells were lysed in 1% NP-40, 5 mM Tris-HCl (pH 8.0), 5 mM EDTA, 0.1 mM N-tosyl-L-phenylalanine chloromethyl ketone, 0.1 mM N-tosyl-L-lysine chloromethyl ketone, and 1 mM phenylmethylsulfonyl fluoride. The lysate was centrifuged (15000×g, 5 min.) and the supernatant was used as a cell extract. […] After transfer to IMMOBILON P™ membrane (Millipore), the blots were probed with LA069 mouse monoclonal antibody to H-ras (Quality Biotech), or rabbit polyclonal antibody to rap1/Krev (Santa Cruz Biotechnology). All Western blots were developed using ECL chemiluminescent reagents (Amersham).

[4] = Mus musculus, NIH3T3, 24 h, Table 2

| Structure (SMILES) | IC50 [1] [nM] | IC50 [2] [nM] | IC50 [3, 4] [nM] | IC50 ([3]; Mus musculus, NIH3T3, Table 2, 24 h) [nM] | IC50 ([3]; Table 2, 24 h) [nM] |
| --- | --- | --- | --- | --- | --- |
| COC(=O)[C@H](CCS(C)(=O)=O)NC(=O)C(Cc1cccs1)NC[C@@H](/C=C/C(N)CS)C(C)C (stereo partly shown) [PA011] | 140 | 11000 | 100 |  |  |
| COC(=O)[C@H](CCS(C)(=O)=O)NC(=O)C(Cc1cccs1)N(C)C[C@@H](/C=C/C(N)CS)C(C)C (stereo partly shown) [PA021] | 28 | 7100 | 80 |  |  |
| CSCC[C@H](NC(=O)C(Cc1cccs1)NC[C@@H](/C=C/C(N)CS)C(C)C)C(=O)O (stereo partly shown) [PA031] | 3.6 | 215 | 1000 |  |  |
| CSCC[C@H](NC(=O)C(Cc1ccccc1)NC[C@@H](/C=C/C(N)CS)C(C)C)C(=O)O (stereo partly shown) [PA041] | 2.5 | 56 | 3500 |  |  |
| CC[C@H](C)[C@H](NC[C@@H](/C=C/C(N)CS)C(C)C)C(=O)N[C@@H](CCSC)C(=O)O (stereo partly shown) [PA051] | 20 | 76 | 1900 |  |  |
| CSCC[C@H](NC(=O)C(NC[C@@H](/C=C/C(N)CS)C(C)C)C(C)C)C(=O)O (stereo partly shown) [PA061] | 2.1 | 48 | 580 |  |  |
| CSCC[C@H](NC(=O)C(Cc1cccs1)N(C)C[C@@H](/C=C/C(N)CS)C(C)C)C(=O)O (stereo partly shown) [PA071] | 22 | 500 | 3100 |  |  |
| COC(=O)[C@H](CCSC)NC(=O)C(Cc1cccs1)NC[C@@H](/C=C/C(N)CS)C(C)C (stereo partly shown) [PA081] | 102 | 2660 | 25 |  |  |
| COC(=O)[C@H](CCSC)NC(=O)C(Cc1ccccc1)NC[C@@H](/C=C/C(N)CS)C(C)C (stereo partly shown) [PA091] | 170 | 2380 | 100 |  |  |
| COC(=O)[C@H](CCSC)NC(=O)C(NC[C@@H](/C=C/C(N)CS)C(C)C)C(C)C (stereo partly shown) [PA101] | 170 | 1300 | 240 |  |  |
| CC(C)[C@H](/C=C/C(N)CS)CNC(Cc1cccs1)C(=O)N[C@@H](CCS(C)(=O)=O)C(=O)O (stereo partly shown) [PA111] | 13 | 270 |  | 130 |  |
| CC(C)[C@H](/C=C/C(N)CS)CN(C)C(Cc1cccs1)C(=O)N[C@@H](CCS(C)(=O)=O)C(=O)O (stereo partly shown) [PA121] | 15 | 380 | 580 |  |  |
| COC(=O)[C@H](CCSC)NC(=O)C(Cc1cccs1)N(C)C[C@@H](/C=C/C(N)CS)C(C)C (stereo partly shown) [PA131] | 28 | 1800 | 39 |  |  |
| CC[C@H](C)[C@H](NC[C@@H](/C=C/C(N)CS)C(C)C)C(=O)N[C@@H](CCSC)C(=O)OC (stereo partly shown) [PA141] | 95 | 880 | 17 |  |  |

The next lines start with results.

| IC50 [1] [nM] | IC50 [2] [nM] | Structure (SMILES) | IC50 [3, 4] [nM] | IC50 ([3]; Mus musculus, NIH3T3, Table 2, 24 h) [nM] | IC50 ([3]; Table 2, 24 h) [nM] |
| --- | --- | --- | --- | --- | --- |
| 2810 | 8050 | CSCC[C@H](NC(=O)C(/C=C/C(/C=C/CCS)C(C)C)Cc1ccccc1)C(=O)O (single isomer, unassigned) [PD052] |  |  |  |
| 2220 | 8050 | CSCC[C@H](NC(=O)C(/C=C/C(/C=C/CCS)C(C)C)Cc1ccccc1)C(=O)O (single isomer, unassigned) [PD112] | 193000 |  |  |
| 23 | 44 | CSCC[C@H](NC(=O)C(/C=C/[C@@H](/C=C/C(N)CS)C(C)(C)C)C(C)C)C(=O)O (single isomer, unassigned) [PD152] | 320 |  |  |
| 38 | 620 | CSCC[C@H](NC(=O)C(/C=C/[C@@H](/C=C/C(N)CS)C(C)(C)C)Cc1ccccc1)C(=O)O (stereo partly shown) [PD012] |  |  | 72000 |
| 5.2 | 3060 | CC(C)C(/C=C/[C@@H](/C=C/C(N)CS)C(C)C)C(=O)N[C@@H](CCC(N)=O)C(=O)O (stereo partly shown) [PD022] | 400 |  |  |
| 450 | 2860 | CSCC[C@H](NC(=O)C(/C=C/[C@@H](/C=C/C(N)CS)C(C)C)C(C)C)C(=O)N1CCOCC1 (stereo partly shown) [PD032] | 1950 |  |  |
| 5 | 1620 | CSCC[C@H](NC(=O)C(/C=C/[C@@H](/C=C/C(N)CS)C(C)C)C(C)C)C(N)=O (stereo partly shown) [PD042] | 1950 |  |  |
| 200 | 1760 | C[C@H](/C=C/C(N)CS)/C=C/C(Cc1ccccc1)C(=O)N[C@@H](CCC(N)=O)C(=O)O (stereo partly shown) [PD062] |  |  | 21000 |
| 42 | 680 | CSCC[C@H](NC(=O)C(/C=C/[C@@H](/C=C/C(N)CS)C(C)C)C(C)C)C(=O)N(C)Cc1ccccn1 (stereo partly shown) [PD072] | 7400 |  |  |
| 1570 |  | CSCCC(=O)NCC(/C=C/[C@@H](/C=C/[C@@H](N)CS)C(C)C)C(C)C (stereo partly shown) [PD082] |  |  |  |
| 52 | 3200 | CC(C)C(/C=C/[C@@H](/C=C/C(N)CS)C(C)C)C(=O)N[C@H]1CCOC1=O (stereo partly shown) [PD092] | 780 |  |  |
| 394 |  | C[C@H](/C=C/C(N)CS)/C=C/C(Cc1ccccc1)C(=O)N[C@@H](CCC(N)=O)C(=O)O (stereo partly shown) [PD102] |  |  | 75000 |
| 3 | 10 | CSCCC(NC(=O)C(/C=C\[C@@H](/C=C/C(N)CS)C(C)C)C(C)C)C(=O)O (stereo partly shown) [PD122] | 400 |  |  |
| 245 | 4770 | COC(=O)[C@H](CCS(C)(=O)=O)NC(=O)C(/C=C/[C@@H](/C=C/C(N)CS)C(C)C)C(C)C (stereo partly shown) [PD132] | 2600 |  |  |
| 42 | 2120 | CSCC[C@H](NC(=O)C(/C=C/[C@@H](/C=C/C(N)CS)C(C)(C)C)C(C)C)C(=O)O (stereo partly shown) [PD142] | 7300 |  |  |
| 260 | 4570 | CSCC[C@H](NC(=O)C(/C=C/C(/C=C/CCS)C(C)C)Cc1ccccc1)C(=O)O (stereo partly shown) [PD162] | 326000 |  |  |
| 7 | 750 | CC(C)C(/C=C/[C@@H](/C=C/C(N)CS)C(C)C)C(=O)N[C@@H](CCS(C)(=O)=O)C(=O)O (stereo partly shown) [PD172] | 13100 |  |  |
| < 1 | 63.3 | CSCC[C@H](NC(=O)C(/C=C/[C@@H](/C=C/C(N)CS)C(C)(C)C)Cc1ccccc1)C(=O)O (stereo partly shown) [PD182] |  |  | 2800 |
| 296 | 2990 | CSCC[C@H](NC(=O)C(/C=C/[C@@H](/C=C/C(N)CS)C(C)C)C(C)C)C(=O)NCc1ccccn1 (stereo partly shown) [PD192] | 180 |  |  |
| 17 | 1120 | CC(C)C(/C=C/[C@@H](/C=C/C(N)CS)C(C)C)C(=O)N[C@@H](CO)C(=O)O (stereo partly shown) [PD202] | 1950 |  |  |
| 3 | 4.5 | CSCCC(NC(=O)C(C=CC(C=CC(N)CSSCC(N)C=CC(C=CC(Cc1ccccc1)C(=O)NC(CCSC)C(=O)O)C(C)C)C(C)C)Cc1ccccc1)C(=O)O (stereo not shown) [PD212] | 110 |  |  |
| 0.2 |  | CSCC[C@H](NC(=O)C(/C=C/[C@@H](/C=C/C(N)CS)C(C)C)C(C)C)C(=O)O (stereo partly shown) [PD341] | 290 |  |  |
| 0.1 |  | CC(C)[C@@H](/C=C\C(Cc1ccccc1)C(=O)NC(CO)C(=O)O)/C=C/C(N)CS (stereo partly shown) [PD361] | 3500 |  |  |
| 38 |  | COC(=O)C(CCSC)NC(=O)C(/C=C\[C@@H](/C=C/C(N)CS)C(C)C)Cc1ccccc1 (stereo partly shown) [PD371] | 90 |  |  |
| 80 |  | CC(C)CC(NC(=O)C(/C=C\[C@@H](/C=C/C(N)CS)C(C)C)Cc1ccccc1)C(=O)O (stereo partly shown) [PD381] |  |  |  |
| 29 |  | CSCC[C@H](NC(=O)C(/C=C/[C@@H](/C=C/C(N)CS)Cc1ccccc1)C(C)C)C(=O)O (stereo partly shown) [PD391] | 16400 |  |  |
| 6 | 1080 | CSCC[C@H](NCC(/C=C\[C@@H](/C=C/C(N)CS)C(C)C)Cc1ccccc1)C(=O)O (stereo partly shown) [PD431] |  |  |  |
